Source: ChEMBL document CHEMBL5096210, “Discovery of Betulinic Acid Derivatives as Potent Intestinal Farnesoid X Receptor Antagonists to Ameliorate Nonalcoholic Steatohepatitis” (J Med Chem, 2022)
Active and inactive are the calls of the source. The calls are words filed in the database; no cut-off is given here.

Key:
[1] = molecular target: T1, G-protein coupled bile acid receptor 1 (Homo sapiens, UniProt Q8TDU6); assay: Agonist activity against TGR5 (unknown origin); type: functional
T1 sequence (Q8TDU6 whole entry): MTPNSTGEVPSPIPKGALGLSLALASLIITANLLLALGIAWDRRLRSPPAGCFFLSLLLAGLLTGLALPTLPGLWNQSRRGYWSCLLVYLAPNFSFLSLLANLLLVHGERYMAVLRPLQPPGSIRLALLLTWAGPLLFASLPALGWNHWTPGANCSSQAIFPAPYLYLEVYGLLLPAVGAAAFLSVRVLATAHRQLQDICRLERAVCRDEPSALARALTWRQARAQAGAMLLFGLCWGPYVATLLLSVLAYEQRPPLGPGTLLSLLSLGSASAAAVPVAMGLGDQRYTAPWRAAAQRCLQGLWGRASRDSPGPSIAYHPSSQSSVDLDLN

[2] = molecular target: T2, Bile acid receptor (Homo sapiens, UniProt Q96RI1); assay: Antagonist activity at FXR (unknown origin) expressed in HEK293T cells cotransfected with pCMV-Script-hFXR/pGL4.11-hSHP-Luciferase incubated for 24 hrs in presence of GW4064 by Steady-glo luciferase assay; type: cell-based
T2 sequence (Q96RI1 whole entry): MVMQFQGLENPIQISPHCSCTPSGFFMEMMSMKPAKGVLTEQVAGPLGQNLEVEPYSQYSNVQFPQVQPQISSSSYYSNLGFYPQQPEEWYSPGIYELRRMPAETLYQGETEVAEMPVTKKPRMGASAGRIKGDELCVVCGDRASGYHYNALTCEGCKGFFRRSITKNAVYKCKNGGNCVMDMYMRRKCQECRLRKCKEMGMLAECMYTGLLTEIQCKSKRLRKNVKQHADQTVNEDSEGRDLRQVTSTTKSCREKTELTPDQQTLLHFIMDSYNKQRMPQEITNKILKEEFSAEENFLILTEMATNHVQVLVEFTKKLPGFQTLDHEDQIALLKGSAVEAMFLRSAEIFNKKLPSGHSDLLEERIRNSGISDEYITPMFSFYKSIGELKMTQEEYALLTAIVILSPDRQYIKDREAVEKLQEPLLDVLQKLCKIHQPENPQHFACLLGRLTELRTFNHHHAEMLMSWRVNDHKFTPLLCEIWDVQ

[3] = molecular target: T3, Bile acid receptor (Homo sapiens) (UniProt Q96RI1); assay: Agonist activity against FXR (unknown origin) at upto 100 uM; details: filed as agonist
T3 sequence (whole entry): T2 sequence (Q96RI1 whole entry)

[4] = Cytotoxicity against HEK293T cells cotransfected with pCMV-Script-hFXR/pGL4.11-hSHP-Luciferase incubated for 24 hrs in presence of GW4064 by celltiter-blue cell viability assay; type: toxicity, cell-based, HEK-293T; details: human
[5] = system: Mus musculus; assay: Anti-NASH activity in GAN diet-induced […] mouse assessed as reduction of ceramide level in serum administered orally for 12 weeks; type: functional, organism-based; details: route po
[6] = organism: Mus musculus; assay: Anti-NASH activity in GAN diet-induced […] mouse assessed as reduction of bile acid pool size in ileum; type: functional, organism-based
[7] = molecular target: T4, Bile acid receptor (Mus musculus) (UniProt Q60641); assay: In vivo antagonist activity against FXR in microbeta depleted mouse assessed as reduction in taurocholic acid induced Fgf15 mRNA expression in ileum at 10 mg/kg, po incubated for 2 to 48 hrs; type: functional, organism-based; details: time 2-48 hrs
T4 sequence (whole entry): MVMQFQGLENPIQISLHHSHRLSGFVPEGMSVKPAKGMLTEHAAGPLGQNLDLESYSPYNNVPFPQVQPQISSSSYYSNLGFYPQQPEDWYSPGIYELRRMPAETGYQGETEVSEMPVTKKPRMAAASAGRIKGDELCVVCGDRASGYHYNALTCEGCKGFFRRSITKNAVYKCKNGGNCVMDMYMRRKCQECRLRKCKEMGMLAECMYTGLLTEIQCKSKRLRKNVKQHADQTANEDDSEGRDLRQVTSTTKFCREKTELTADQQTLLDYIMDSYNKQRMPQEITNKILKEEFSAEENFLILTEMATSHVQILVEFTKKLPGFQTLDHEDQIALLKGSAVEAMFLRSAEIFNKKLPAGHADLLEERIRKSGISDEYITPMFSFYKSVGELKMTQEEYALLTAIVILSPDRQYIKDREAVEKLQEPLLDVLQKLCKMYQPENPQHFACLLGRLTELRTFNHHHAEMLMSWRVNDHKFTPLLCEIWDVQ

[8] = organism: Mus musculus; assay: Anti-NASH activity in GAN diet-induced […] mouse assessed as increase in hepatic bile acid synthesis; type: functional, organism-based
[9] = molecular target: T4, Bile acid receptor (Mus musculus); assay: In vivo antagonist activity against FXR in microbeta depleted mouse assessed as reduction in taurocholic acid induced FXR mRNA expression in hepatic signaling at 10 mg/kg, po incubated for 2 to 48 hrs; type: functional, organism-based; details: time 2-48 hrs
[10] = organism: Mus musculus; assay: Anti-NASH activity in GAN diet-induced […] mouse assessed as bile acid level in gall bladder; type: functional, organism-based
[11] = organism: Mus musculus; assay: Anti-NASH activity in GAN diet-induced […] mouse assessed as bile acid level in serum; type: functional, organism-based
[12] = system: Mus musculus; assay: Anti-NASH activity in GAN diet-induced […] mouse assessed as reduction of glycosyl-ceramide level in serum administered orally for 12 weeks; type: functional, organism-based; details: route po
[13] = molecular target: T4, Bile acid receptor (Mus musculus); assay: In vivo antagonist activity against FXR in microbeta depleted mouse assessed as reduction in taurocholic acid induced Shp mRNA expression in ileum at 10 mg/kg, po incubated for 2 to 48 hrs; type: functional, organism-based; details: time 2-48 hrs
[14] = system: Mus musculus; assay: Anti-NASH activity in GAN diet-induced […] mouse assessed as reduction of sphinogo-myelin level in serum administered orally for 12 weeks; type: functional, organism-based; details: route po
[15] = organism: Mus musculus; assay: Anti-NASH activity in GAN diet-induced […] mouse assessed as reduction in bile acid loss in cecum content; type: functional, organism-based
[16] = system: Mus musculus; assay: Anti-NASH activity in GAN diet-induced […] mouse assessed as reduction of dihydroceramide level in serum administered orally for 12 weeks; type: functional, organism-based; details: route po

SMILES | EC50 [1] [µM] | IC50 [2] [µM] | Activity [3] | IC50 at 24 h [4] [µM] | Activity [5] | Activity [6] | Activity [7] | Activity [8] | Activity [9] | Activity [10] | Activity [11] | Activity [12] | Activity [13] | Activity [14] | Activity [15] | Activity [16]
CC(C)[C@@H]1CC[C@]2(C(=O)NCC(=O)O)CC[C@]3(C)[C@H](CC[C@@H]4[C@@]5(C)CC[C@@H](O)C(C)(C)[C@@H]5CC[C@]43C)[C@@H]12 | > 100 | 74 | Active | > 100 |  |  |  |  |  |  |  |  |  |  |  | 
C[C@H](CCC(=O)NCC(=O)O)[C@H]1CC[C@H]2[C@@H]3[C@@H](O)C[C@@H]4C[C@H](O)CC[C@]4(C)[C@H]3CC[C@]12C [GLYCOURSODEOXYCHOLIC ACID] |  |  |  | > 100 | Active | Active | Active | Active | Active | Active | Active | Active | Active | Active | Active | Active
